Key:
Experiment in all cases: relative viability (nuclei count vs DMSO), 5 days (fraction); higher = more cells survive
[1] = compound: C1=CC2=NC=CN=C2C=C1/C=C/3\C(=O)NC(=O)S3 + CC(=O)c1c(C)c2cnc(Nc3ccc(N4CCNCC4)cn3)nc2n(C2CCCC2)c1=O [Palbociclib] (partner 0.5 µM)
Method in brief: (§1)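 Values are medians from duplicate plates. Each reflects relative viability, defined as the nuclei count of treated wells over that of vehicle wells. Lung cancer cell lines in 1536-well plates were pin-tool dosed one day after seeding with one drug alone or with a fixed anchor-drug dose plus five library-drug doses (not always all listed) in √10 steps, then fixed, stained and imaged at 4× after 5 days.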

[2] = compound: C1=CC2=NC=CN=C2C=C1/C=C/3\C(=O)NC(=O)S3 + NC(=O)Nc1cc(-c2cccc(F)c2)sc1C(=O)N[C@H]1CCCNC1 [AZD7762] (partner 0.2 µM)
Method in brief: as §1

BGJ398 + Crizotinib = compound: CCN1CCN(c2ccc(Nc3cc(N(C)C(=O)Nc4c(Cl)c(OC)cc(OC)c4Cl)ncn3)cc2)CC1 [BGJ398] + C[C@@H](Oc1cc(-c2cnn(C3CCNCC3)c2)cnc1N)c1c(Cl)ccc(F)c1Cl [Crizotinib] (partner 1 µM)
Method in brief: as §1

BGJ398 + Decitabine = compound: CCN1CCN(c2ccc(Nc3cc(N(C)C(=O)Nc4c(Cl)c(OC)cc(OC)c4Cl)ncn3)cc2)CC1 [BGJ398] + Nc1ncn([C@H]2C[C@H](O)[C@@H](CO)O2)c(=O)n1 [Decitabine] (partner 2 µM)
Method in brief: as §1

Cell Line | relative viability ([1]; first compound 0.02 µM) | relative viability ([1]; first compound 0.06325 µM) | relative viability ([1]; first compound 0.2 µM) | relative viability ([1]; first compound 0.6325 µM) | relative viability ([1]; first compound 2 µM) | relative viability ([2]; first compound 0.02 µM) | relative viability ([2]; first compound 0.06325 µM) | relative viability ([2]; first compound 0.2 µM) | relative viability ([2]; first compound 0.6325 µM) | relative viability ([2]; first compound 2 µM) | relative viability (BGJ398 + Crizotinib; first compound 0.01 µM) | relative viability (BGJ398 + Crizotinib; first compound 0.03162 µM) | relative viability (BGJ398 + Crizotinib; first compound 0.1 µM) | relative viability (BGJ398 + Crizotinib; first compound 0.3162 µM) | relative viability (BGJ398 + Crizotinib; first compound 1 µM) | relative viability (BGJ398 + Decitabine; first compound 0.01 µM) | relative viability (BGJ398 + Decitabine; first compound 0.03162 µM) | relative viability (BGJ398 + Decitabine; first compound 0.1 µM) | relative viability (BGJ398 + Decitabine; first compound 0.3162 µM) | relative viability (BGJ398 + Decitabine; first compound 1 µM)
NCI-H3122 | 0.204 | 0.213 | 0.173 | 0.194 | 0.186 | 0.989 | 1 | 0.984 | 0.991 | 0.913 | 0.229 | 0.271 | 0.282 | 0.295 | 0.272 | 0.394 | 0.416 | 0.458 | 0.478 | 0.42
HCC-827 | 0.616 | 0.436 | 0.425 | 0.51 | 0.473 | 0.218 | 0.155 | 0.261 | 0.265 | 0.114 | 0.964 | – | 0.92 | 0.973 | 0.938 | 0.286 | – | 0.332 | 0.185 | 0.27
NCI-H1975 | 0.465 | 0.683 | 0.563 | 0.56 | 0.394 | 0.589 | 0.632 | 0.705 | 0.747 | 0.418 | 1.03 | 0.979 | 1.1 | 1.07 | 0.948 | 0.492 | 0.454 | 0.423 | 0.406 | 0.381
NCI-H1651 | 0.495 | 0.503 | 0.507 | 0.515 | 0.453 | 0.472 | 0.289 | 0.508 | 0.471 | 0.417 | 0.843 | 0.865 | 0.874 | 0.876 | 0.892 | 0.463 | 0.604 | 0.664 | 0.602 | 0.458
NCI-H441 | 0.195 | 0.271 | 0.24 | 0.193 | 0.112 | 1.07 | 1.18 | 1.3 | 1 | 1.1 | 0.601 | 0.841 | 0.778 | 0.691 | 0.783 | – | 0.26 | 0.275 | 0.273 | 0.224
LCLC-103H | 0.482 | 0.457 | 0.475 | 0.431 | 0.485 | 0.658 | 0.886 | 0.828 | 0.749 | 0.629 | 1.02 | 1.03 | 1.03 | 0.96 | 0.827 | 0.714 | 0.631 | 0.67 | 0.628 | 0.566
LCLC-97TM1 | 0.239 | 0.214 | 0.215 | 0.176 | 0.155 | 0.21 | 0.219 | 0.253 | 0.269 | 0.113 | 0.34 | 0.335 | 0.317 | 0.463 | 0.267 | 0.238 | 0.222 | 0.214 | 0.216 | 0.225
NCI-H727 | 0.549 | 0.683 | 0.637 | 0.649 | 0.556 | 0.597 | 0.63 | 0.737 | 0.678 | 0.337 | 0.809 | 0.853 | 0.795 | 0.857 | 0.711 | 0.859 | 0.862 | 0.965 | 0.862 | 0.669
NCI-H1355 | 0.359 | 0.419 | 0.401 | 0.359 | 0.358 | 0.789 | 0.67 | 0.749 | 0.691 | 0.544 | 1.01 | 1.02 | 1.03 | 0.962 | 1.08 | 0.378 | 0.309 | 0.348 | 0.352 | 0.348
HOP-62 | 0.478 | 0.527 | 0.44 | 0.373 | 0.449 | 0.847 | 0.91 | 0.516 | 0.434 | 0.685 | 0.755 | 1 | 0.861 | 1.13 | 0.737 | 0.232 | 0.245 | 0.204 | 0.225 | 0.215
NCI-H2085 | 0.494 | 0.436 | 0.485 | 0.448 | 0.46 | 0.972 | 0.845 | 0.958 | 0.984 | 0.918 | 0.836 | 0.871 | 1.05 | 0.892 | 1.01 | 0.528 | 0.578 | 0.544 | 0.535 | 0.547

Source: the supplement of paper PMC10307832
